Source: ChEMBL document CHEMBL1132513, “Manipulation of the C(22)-C(27) region of rapamycin: stability issues and biological implications” (Bioorg Med Chem Lett, 1999)

Tests used:
[1] = The activity in the LAF assay is best expressed as a ratio of the rapamycin IC50 (1-9 nM) /analogue IC50 (R/A); type: functional
Mus musculus [2] = organism: Mus musculus; assay: In vitro ability to inhibit lymphoproliferation (LAF) in vitro using cells from the thymus of normal BALB/c mice; type: functional
[3] = Ability to bind to FK506 binding protein via its inhibition of peptidyl prolyl cis-trans isomerase activity (PPIase) inherent to FKBP
Mus musculus [4] = assay: Ability to prevent transplantation rejection in vivo in mouse skin graft model; type: functional
[5] = Half life was determined; type: ADME; conditions: rat

SMILES | Ratio [1] | IC50 (Mus musculus [2]) | IC50 [3] | Survival (Mus musculus [4]) | half-life [5] | Skin Graft Survival (Mus musculus [4])
CCC12CCCCN1C(=O)C(=O)[C@]1(O)O[C@@H](CC[C@H]1C)C[C@H](OC)/C(C)=C/C=C/C=C/[C@@H](C)C[C@@H](C)C(=O)[C@H](OC)[C@H](O)/C(C)=C/[C@@H](C)C(=O)C[C@@H]([C@H](C)C[C@H]1CC[C@H](O)[C@H](OC)C1)OC2=O (stereo not given in full) | 0.07 | 140 nM | 950 nM |  |  | 
CO[C@H]1C[C@@H]2CC[C@@H](C)[C@@](O)(O2)C(=O)C(=O)N2CCCCC2(C)C(=O)O[C@H]([C@H](C)C[C@H]2CC[C@H](O)[C@@H](OC)C2)CC(=O)[C@H](C)/C=C(\C)[C@@H](O)[C@@H](OC)C(=O)[C@H](C)C[C@H](C)/C=C/C=C/C=C/1C (stereo not given in full) | 0.42 | 23 nM | 95 nM | 9.33 | 38.4 h | 
CO[C@H]1C[C@@H]2CC[C@@H](C)[C@@](O)(O2)C(=O)C(=O)N2CCCCC2(C)C(=O)O[C@H]([C@H](C)C[C@H]2CC[C@H](O)[C@@H](OC)C2)CC(O)[C@H](C)/C=C(\C)[C@@H](O)[C@@H](OC)C(=O)[C@H](C)C[C@H](C)/C=C/C=C/C=C/1C (stereo not given in full) | 0.23 | 9.9 nM | 150 nM | 7 | 14.6 h | 
CO[C@H]1C[C@@H]2CC[C@@H](C)[C@@](O)(O2)C(=O)C(=O)N2CCCC[C@H]2C(=O)O[C@H](C[C@H](O)[C@H](C)C[C@@H]2CC[C@@H](O)[C@H](OC)C2)[C@H](C)/C=C(\C)[C@@H](O)[C@@H](OC)C(=O)[C@H](C)C[C@H](C)/C=C/C=C/C=C/1C | 0.42 | 16 nM | 310 nM | 7 | 21.6 h | 
CO[C@H]1C[C@@H]2CC[C@@H](C)[C@@](O)(O2)C(=O)C(=O)N2CCCC[C@H]2C(=O)O[C@H]([C@H](C)C[C@H]2CC[C@H](O)[C@@H](OC)C2)CC(O)[C@H](C)/C=C(\C)[C@@H](O)[C@@H](OC)C(=O)[C@H](C)C[C@H](C)/C=C/C=C/C=C/1C (stereo not given in full) | 1.3 | 3.7 nM | 22 nM |  | 17.5 h | 8.5
CO[C@H]1C[C@@H]2CC[C@@H](C)[C@@](O)(O2)C(=O)C(=O)N2CCCC[C@H]2C(=O)O[C@H]([C@H](C)C[C@H]2CC[C@H](O)[C@@H](OC)C2)C[C@@H](OC(C)=O)[C@H](C)/C=C(\C)[C@@H](O)[C@@H](OC)C(=O)[C@H](C)C[C@H](C)/C=C/C=C/C=C/1C | 0.08 | 99 nM |  |  | 34 h | 
CO[C@H]1C[C@@H]2CC[C@@H](C)[C@@](O)(O2)C(=O)C(=O)N2CCCC[C@H]2C(=O)O[C@H]([C@H](C)C[C@@H]2CC[C@@H](O)[C@H](OC)C2)CC(=O)[C@H](C)/C=C(\C)[C@@H](O)[C@@H](OC)C(=O)[C@H](C)C[C@H](C)/C=C/C=C/C=C/1C [SIROLIMUS] |  | 3 nM | 15 nM |  | 13 h | 12
